Assay in all cases: MS-based quantitative proteomics in NCI-H929 cells
Common to all, as to assay type: cell-based

One data set addresses T1, PLZF (Homo sapiens, UniProt Q05516).
T1 construct: endogenous in cells; host or cells: NCI-H929
The conditions noted are these: NCI-H929, 10 µM. The protocol:
(§1) NCI-H929 cells were treated with either 10 μM DMSO or 10 μM MGD-C9 for 4 h. Post-treatment, the cells were washed with PBS (pH = 7.2–7.4, 1×) and then lysed in 8M Urea (UA) (comprising 8M urea, 100 mM Tris-HCl, pH = 8.0). Subsequently, the cell lysate was subjected to centrifugation on a high-speed freezing microcentrifuge (#CF1524R; SCILOGEX, Meriden, CT, USA) at […], and the supernatant was collected. Subsequently, the collected supernatant was treated with 10 mM tris (2-carboxyethyl) phosphine hydrochloride (TCEP) to reduce it for 30 min. Following this, cysteine alkylation was performed using 50 mM 2-chloroacetamide (CAA) for an additional 30 min. The denatured proteins were then digested with trypsin (1 μg/μL) at an enzyme-to-protein ratio of 1:50 and incubated at 37°C overnight. The reaction was stopped by adding 0.1% formic acid (FA). The samples were desalted using 100 μL pipette tips packed with C18 discs (3M, Saint Paul, MN, USA). Prior to sample loading, the tips were conditioned sequentially with 80 μL of acetonitrile (ACN), followed by 80 μL of a 1:1 (v/v) mixture of H2O and ACN, and finally with 80 μL of H2O. The conditioned tips were loaded with peptides. Then, they were washed twice with 80 μL of H2O. After that, the peptides were eluted twice using 80 μL of a solution composed of 50% water and 50% acetonitrile (ACN). The resulting eluates were vacuum-dried and then reconstituted in 0.1% formic acid for the subsequent LC-MS/MS analysis.
(§2) The peptide mixtures were analyzed using an EASY-nLC 1200 liquid chromatography system (Thermo Fisher Scientific, WLM, MA, USA) equipped with a custom-made 15 cm C18 column (150 μm ID, 1.9 μm particle size, 100 Å pore size). Peptide separation was performed over a 75-min gradient at a constant flow rate of 600 nL/min. The gradient profile was as follows: 4%–7% buffer B (1 min), 7%–13% buffer B (6 min), 13%–25% buffer B (38 min), 25%–45% buffer B (22 min), 45%–95% buffer B (1 min), followed 95% buffer B (7-min). The buffers used were Buffer A (0.1% formic acid) and Buffer B (0.1% formic acid in 80% acetonitrile). The peptide mixtures were then analyzed using a Q Exactive HF mass spectrometer (Thermo Fisher Scientific). MS data were acquired in data-dependent acquisition (DDA) mode with a dynamic exclusion duration of 15 s. MS1 scans were acquired in positive-ion mode across a mass-to-charge (m/z) range of 300–1400, with a resolution of 120,000 (at m/z 200) and a maximum injection time of 50 ms. Precursor ions were fragmented using higher-energy collision dissociation (HCD) at 27% normalized collision energy. MS2 spectra were collected with an AGC target of 5.0 × 10^4 and a maximum injection time of 20 ms.
(§3) Label-free MS raw data were processed using MaxQuant (v2.4) against the UniProt Human database (https://www.uniprot.org/, downloaded May 2024; 20,434 entries). A strict false discovery rate (FDR) threshold of ≤0.01 was applied at the spectra, protein, and modification levels. Contaminants and reverse database hits were excluded. Default settings were used for all other parameters. Protein groups output by MaxQuant were further analyzed in R (v4.2.1). Student’s t-test, and p-values < 0.01 were considered statistically significant for statistical analyses and a volcano plot was generated with GraphPad Prism 8.0.

A further data set addresses T2, GSPT1 (Homo sapiens, UniProt P15170).
T2 construct: endogenous in cells; host or cells: NCI-H929
The conditions noted are these: NCI-H929, 10 μM, 4 h; not notably downregulated. The protocol: as §1, §2, §3

For the next data set, the target named is T3, SALL4 (Homo sapiens, UniProt Q9UJQ4).
T3 construct: endogenous in cells; host or cells: NCI-H929
The conditions noted are these: NCI-H929, 10 µM. The procedure:
as §1, §2, §3

Another data set deals with T4, IKZF1 (Homo sapiens, UniProt Q13422+Q96SW2).
T4 construct: endogenous in cells; host or cells: NCI-H929
The conditions noted are these: NCI-H929, 10 μM, 4 h. The procedure:
as §1, §2, §3

The target of another data set is T5, IKZF4 (Homo sapiens, UniProt Q9H2S9).
T5 construct: endogenous in cells; host or cells: NCI-H929
The conditions noted are these: NCI-H929, 10 μM, 4 h; not notably downregulated. The procedure:
as §1, §2, §3

The target of a further data set is T6, CK1α (Homo sapiens, UniProt P48729).
T6 construct: endogenous in cells; host or cells: NCI-H929
The conditions noted are these: NCI-H929, 10 μM, 4 h; not notably downregulated. The procedure: as §1, §2, §3

The next data set has as its target T7, IKZF5 (Homo sapiens, UniProt Q9H5V7).
T7 construct: endogenous in cells; host or cells: NCI-H929
The conditions noted are these: NCI-H929, 10 μM, 4 h; not notably downregulated. The protocol:
as §1, §2, §3

Another data set deals with T8, IKZF3 (Homo sapiens, UniProt Q96SW2+Q9UKT9).
T8 construct: endogenous in cells; host or cells: NCI-H929
The conditions noted are these: NCI-H929, 10 μM, 4 h. The procedure:
as §1, §2, §3

A further data set concerns the target IKZF2 (Homo sapiens, UniProt Q9UKS7). On the set-up: endogenous in cells; host or cells: NCI-H929. To be noted: NCI-H929, 10 μM, 4 h; not notably downregulated. The procedure: NCI-H929 cells were treated with either 10 μM DMSO or 10 μM MGD-C9 for 4 h. Post-treatment, the cells were washed with PBS (pH = 7.2–7.4, 1×) and then lysed in 8M Urea (UA) (comprising 8M urea, 100 mM Tris-HCl, pH = 8.0). Subsequently, the cell lysate was subjected to centrifugation on a high-speed freezing microcentrifuge (#CF1524R; SCILOGEX, Meriden, CT, USA) at […], and the supernatant was collected. Subsequently, the collected supernatant was treated with 10 mM tris (2-carboxyethyl) phosphine hydrochloride (TCEP) to reduce it for 30 min. Following this, cysteine alkylation was performed using 50 mM 2-chloroacetamide (CAA) for an additional 30 min. The denatured proteins were then digested with trypsin (1 μg/μL) at an enzyme-to-protein ratio of 1:50 and incubated at 37°C overnight. […]
The peptide mixtures were analyzed using an EASY-nLC 1200 liquid chromatography system (Thermo Fisher Scientific, WLM, MA, USA) equipped with a custom-made 15 cm C18 column (150 μm ID, 1.9 μm particle size, 100 Å pore size). […] The peptide mixtures were then analyzed using a Q Exactive HF mass spectrometer (Thermo Fisher Scientific). […]
Label-free MS raw data were processed using MaxQuant (v2.4) against the UniProt Human database (https://www.uniprot.org/, downloaded May 2024; 20,434 entries). […] Protein groups output by MaxQuant were further analyzed in R (v4.2.1). […]

The structures appear in SMILES notation.

T8 sequence (Q9UKT9 whole entry): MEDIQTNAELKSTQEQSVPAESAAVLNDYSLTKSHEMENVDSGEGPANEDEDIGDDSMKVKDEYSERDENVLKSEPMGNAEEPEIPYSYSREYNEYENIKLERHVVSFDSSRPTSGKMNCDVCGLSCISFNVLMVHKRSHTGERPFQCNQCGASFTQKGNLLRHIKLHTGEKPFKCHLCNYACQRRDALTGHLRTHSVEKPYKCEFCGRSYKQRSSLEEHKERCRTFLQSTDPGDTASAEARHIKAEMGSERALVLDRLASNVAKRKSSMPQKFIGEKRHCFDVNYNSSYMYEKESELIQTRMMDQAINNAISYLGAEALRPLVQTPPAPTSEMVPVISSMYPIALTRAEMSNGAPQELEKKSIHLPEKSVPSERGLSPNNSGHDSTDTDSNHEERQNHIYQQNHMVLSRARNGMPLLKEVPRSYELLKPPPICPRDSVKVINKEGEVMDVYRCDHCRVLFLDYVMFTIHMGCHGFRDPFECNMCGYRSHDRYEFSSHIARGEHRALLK
T8 sequence (Q96SW2 whole entry): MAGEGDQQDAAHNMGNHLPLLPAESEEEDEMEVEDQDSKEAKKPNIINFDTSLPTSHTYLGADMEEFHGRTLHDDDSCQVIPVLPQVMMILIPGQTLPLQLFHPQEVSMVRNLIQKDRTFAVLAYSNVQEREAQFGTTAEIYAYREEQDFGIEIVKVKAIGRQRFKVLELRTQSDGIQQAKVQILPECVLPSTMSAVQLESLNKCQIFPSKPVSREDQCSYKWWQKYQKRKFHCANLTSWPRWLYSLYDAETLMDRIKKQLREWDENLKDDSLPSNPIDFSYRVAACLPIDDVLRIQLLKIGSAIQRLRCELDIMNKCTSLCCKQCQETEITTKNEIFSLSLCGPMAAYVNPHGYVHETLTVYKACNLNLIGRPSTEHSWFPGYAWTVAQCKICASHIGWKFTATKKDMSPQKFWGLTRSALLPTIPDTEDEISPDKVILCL
T8 sequence (Q16531 whole entry partner): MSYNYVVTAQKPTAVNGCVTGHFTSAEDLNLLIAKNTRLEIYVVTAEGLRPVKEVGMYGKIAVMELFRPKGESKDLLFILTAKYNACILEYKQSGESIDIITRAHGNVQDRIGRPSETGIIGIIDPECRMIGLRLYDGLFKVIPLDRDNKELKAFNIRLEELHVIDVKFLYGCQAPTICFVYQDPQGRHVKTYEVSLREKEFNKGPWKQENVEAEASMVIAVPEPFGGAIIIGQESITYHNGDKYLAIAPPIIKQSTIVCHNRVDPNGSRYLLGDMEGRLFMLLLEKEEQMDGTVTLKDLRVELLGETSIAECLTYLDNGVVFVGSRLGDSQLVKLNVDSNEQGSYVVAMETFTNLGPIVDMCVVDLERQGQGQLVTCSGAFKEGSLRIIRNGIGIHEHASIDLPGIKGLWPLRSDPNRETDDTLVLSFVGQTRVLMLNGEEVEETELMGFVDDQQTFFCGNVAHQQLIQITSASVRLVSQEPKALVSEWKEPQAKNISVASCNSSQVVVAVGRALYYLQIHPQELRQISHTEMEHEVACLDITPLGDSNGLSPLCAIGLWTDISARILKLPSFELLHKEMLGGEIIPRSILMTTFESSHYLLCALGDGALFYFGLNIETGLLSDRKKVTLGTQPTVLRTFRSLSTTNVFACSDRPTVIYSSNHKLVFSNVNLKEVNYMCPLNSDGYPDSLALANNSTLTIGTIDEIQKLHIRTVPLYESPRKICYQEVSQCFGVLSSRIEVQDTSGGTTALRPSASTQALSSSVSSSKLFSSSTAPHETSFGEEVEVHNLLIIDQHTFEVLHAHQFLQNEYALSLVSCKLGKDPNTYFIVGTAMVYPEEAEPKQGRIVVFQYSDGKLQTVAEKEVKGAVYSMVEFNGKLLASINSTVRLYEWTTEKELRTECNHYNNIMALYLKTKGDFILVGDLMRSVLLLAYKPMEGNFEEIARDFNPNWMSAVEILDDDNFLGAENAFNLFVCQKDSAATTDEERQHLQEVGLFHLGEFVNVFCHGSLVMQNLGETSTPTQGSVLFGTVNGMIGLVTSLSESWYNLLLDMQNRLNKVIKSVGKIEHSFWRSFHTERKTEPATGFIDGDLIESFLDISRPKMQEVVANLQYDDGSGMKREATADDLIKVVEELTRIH
T4 sequence (Q13422 whole entry): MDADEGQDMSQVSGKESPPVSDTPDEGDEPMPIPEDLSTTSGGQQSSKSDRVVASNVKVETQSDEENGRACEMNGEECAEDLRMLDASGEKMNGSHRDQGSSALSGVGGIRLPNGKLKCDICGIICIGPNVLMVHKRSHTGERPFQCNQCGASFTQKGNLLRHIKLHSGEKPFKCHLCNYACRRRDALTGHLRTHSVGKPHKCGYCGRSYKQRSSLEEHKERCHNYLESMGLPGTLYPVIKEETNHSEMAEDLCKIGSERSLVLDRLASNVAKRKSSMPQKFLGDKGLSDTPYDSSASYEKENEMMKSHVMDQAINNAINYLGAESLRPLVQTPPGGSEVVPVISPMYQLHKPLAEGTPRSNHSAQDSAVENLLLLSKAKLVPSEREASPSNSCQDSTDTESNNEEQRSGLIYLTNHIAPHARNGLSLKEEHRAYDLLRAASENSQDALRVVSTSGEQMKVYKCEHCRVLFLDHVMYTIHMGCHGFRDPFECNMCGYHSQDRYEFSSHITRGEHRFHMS
T4 sequence (Q96SW2 whole entry): as the sequence (Q96SW2 whole entry) above
T4 sequence (Q16531 whole entry partner): as the sequence (Q16531 whole entry partner) above
T6 sequence (Q96SW2 whole entry partner): as the sequence (Q96SW2 whole entry) above
T6 sequence (Q16531 whole entry partner): as the sequence (Q16531 whole entry partner) above
T6 sequence (P48729 whole entry): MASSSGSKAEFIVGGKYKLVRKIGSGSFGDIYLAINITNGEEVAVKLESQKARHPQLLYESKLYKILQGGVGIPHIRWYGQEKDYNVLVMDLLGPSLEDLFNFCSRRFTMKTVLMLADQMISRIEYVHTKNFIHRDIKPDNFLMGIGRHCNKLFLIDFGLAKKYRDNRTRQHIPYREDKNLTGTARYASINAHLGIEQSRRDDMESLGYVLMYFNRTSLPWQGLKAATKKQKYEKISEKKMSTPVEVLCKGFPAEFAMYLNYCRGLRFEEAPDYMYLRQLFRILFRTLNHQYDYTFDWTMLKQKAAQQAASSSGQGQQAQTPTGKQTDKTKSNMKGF
T1 sequence (Q96SW2 whole entry partner): as the sequence (Q96SW2 whole entry) above
T1 sequence (Q16531 whole entry partner): as the sequence (Q16531 whole entry partner) above
T1 sequence (Q05516 whole entry): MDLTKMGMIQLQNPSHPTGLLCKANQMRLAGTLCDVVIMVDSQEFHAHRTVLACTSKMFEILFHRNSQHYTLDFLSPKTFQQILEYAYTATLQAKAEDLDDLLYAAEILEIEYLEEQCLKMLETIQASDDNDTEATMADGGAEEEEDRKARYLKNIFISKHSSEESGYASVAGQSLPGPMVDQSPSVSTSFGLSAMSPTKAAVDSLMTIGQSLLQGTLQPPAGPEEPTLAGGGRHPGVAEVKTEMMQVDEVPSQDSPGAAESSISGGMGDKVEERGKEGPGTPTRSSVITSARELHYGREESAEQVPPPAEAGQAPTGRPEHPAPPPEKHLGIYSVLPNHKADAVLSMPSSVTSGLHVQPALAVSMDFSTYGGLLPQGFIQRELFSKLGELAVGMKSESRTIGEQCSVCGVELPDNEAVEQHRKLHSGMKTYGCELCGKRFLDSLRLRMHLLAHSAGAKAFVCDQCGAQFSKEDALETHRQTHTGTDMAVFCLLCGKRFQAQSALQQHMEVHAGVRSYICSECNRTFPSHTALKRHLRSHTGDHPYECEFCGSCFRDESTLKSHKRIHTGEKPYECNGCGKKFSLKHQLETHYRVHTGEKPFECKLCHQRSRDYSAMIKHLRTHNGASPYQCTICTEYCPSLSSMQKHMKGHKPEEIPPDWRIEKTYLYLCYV
T5 sequence (Q96SW2 whole entry partner): as the sequence (Q96SW2 whole entry) above
T5 sequence (Q16531 whole entry partner): as the sequence (Q16531 whole entry partner) above
T5 sequence (Q9H2S9 whole entry): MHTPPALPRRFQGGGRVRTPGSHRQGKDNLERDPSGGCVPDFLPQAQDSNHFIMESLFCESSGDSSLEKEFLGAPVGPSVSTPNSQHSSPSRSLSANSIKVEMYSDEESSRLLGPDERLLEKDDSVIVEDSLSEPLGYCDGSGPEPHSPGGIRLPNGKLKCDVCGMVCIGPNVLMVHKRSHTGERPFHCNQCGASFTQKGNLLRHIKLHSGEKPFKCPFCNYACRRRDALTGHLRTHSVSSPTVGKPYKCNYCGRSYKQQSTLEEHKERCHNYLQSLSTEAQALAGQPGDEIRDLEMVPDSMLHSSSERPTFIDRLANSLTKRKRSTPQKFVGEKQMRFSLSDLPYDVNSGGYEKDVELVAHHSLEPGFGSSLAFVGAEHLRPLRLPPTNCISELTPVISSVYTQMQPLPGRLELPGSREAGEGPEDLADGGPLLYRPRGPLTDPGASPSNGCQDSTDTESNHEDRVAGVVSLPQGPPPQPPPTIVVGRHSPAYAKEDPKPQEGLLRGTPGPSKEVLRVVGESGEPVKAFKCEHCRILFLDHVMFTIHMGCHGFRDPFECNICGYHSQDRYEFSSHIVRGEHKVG

Consider `CN1CCN(Cc2cccc(C(=O)NC3CCC(=O)NC3=O)c2F)C(=O)C1` (stereo not drawn) [MGD-C9, N-(2,6-dioxopiperidin-3-yl)-2-fluoro-3-((4-methyl-2-oxopiperazin-1-yl)methyl)benzamide], for which the “PLZF level (proteomics)” value at PLZF is “remained unaffected”. Besides, the “absolute [log2(fold change)] of GSPT1” value at GSPT1 is given as “less than 1”. On SALL4, the “SALL4 level (proteomics)” value is given as “remained unaffected”. Further, on IKZF1, the “reduction of IKZF1 (proteomics)” value was “approximately 75.1%”. For the same compound, the “absolute [log2(fold change)] of IKZF4” value at IKZF4 is reported as “less than 1”. In addition, at CK1α, the “absolute [log2(fold change)] of CK1α” value is “less than 1”. Further, on IKZF5, the “absolute [log2(fold change)] of IKZF5” value was “less than 1”. On IKZF3, the “reduction of IKZF3 (proteomics)” value is about 80.2%. Also, on IKZF2, the “absolute [log2(fold change)] of IKZF2” value is recorded as “less than 1”.

For the origin of these results see PMC12494099, “Discovery and Characterization of Novel IKZF1/3 Glue Degraders against Multiple Hematological Cancer Cell Lines” (Oncology Research, 2025).
